Measurements from patent US20260138990A1, “TRICYCLIC FUSED IMIDAZOLE COMPOUNDS AS CD38 MODULATORS AND USES THEREOF” (AEOVIAN PHARMACEUTICALS, INC., priority 2023, published 2026).

Columns and labels:
[1] = molecular target: T1, mouse CD38 (Mus musculus, UniProt P56528); assay: NAD+ cyclase activity assay with mouse recombinant CD38 protein (ε-NAD fluorescence); assay type: biochemical; conditions: 0.6 nM mouse CD38, substrate ε-NAD, 30 min preincubation, fluorescence 300/410 nm
T1 construct: purchased Bio-Techne GmbH 4947-AC
T1 sequence (P56528 1-304): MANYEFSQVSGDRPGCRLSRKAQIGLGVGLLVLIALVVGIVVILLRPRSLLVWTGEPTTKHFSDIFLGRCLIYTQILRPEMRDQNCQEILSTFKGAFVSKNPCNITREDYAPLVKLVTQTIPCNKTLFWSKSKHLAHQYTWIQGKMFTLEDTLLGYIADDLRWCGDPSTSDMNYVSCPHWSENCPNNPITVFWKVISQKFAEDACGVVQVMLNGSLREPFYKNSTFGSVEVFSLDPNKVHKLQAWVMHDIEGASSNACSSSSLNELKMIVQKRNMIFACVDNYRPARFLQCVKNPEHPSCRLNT
In short: (§1)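 Twelve-point threefold compound dilutions were given 30 min at room temperature with 0.6 nM mouse or 1.9 nM human CD38 before […] ε-NAD was added (pH 7.5 HEPES/sucrose/Tween buffer). The rate came from the linear-phase slope of ex 300/em 410 nm fluorescence against vehicle and no-CD38 controls.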

[2] = molecular target: T2, human CD38 (Homo sapiens, UniProt P28907); assay: NAD+ cyclase activity assay with human recombinant CD38 protein (ε-NAD fluorescence); assay type: biochemical; conditions: 1.9 nM human CD38, substrate ε-NAD, 30 min preincubation, fluorescence 300/410 nm
T2 construct: purchased Bio-Techne GmbH AVI2404
T2 sequence (P28907 1-300): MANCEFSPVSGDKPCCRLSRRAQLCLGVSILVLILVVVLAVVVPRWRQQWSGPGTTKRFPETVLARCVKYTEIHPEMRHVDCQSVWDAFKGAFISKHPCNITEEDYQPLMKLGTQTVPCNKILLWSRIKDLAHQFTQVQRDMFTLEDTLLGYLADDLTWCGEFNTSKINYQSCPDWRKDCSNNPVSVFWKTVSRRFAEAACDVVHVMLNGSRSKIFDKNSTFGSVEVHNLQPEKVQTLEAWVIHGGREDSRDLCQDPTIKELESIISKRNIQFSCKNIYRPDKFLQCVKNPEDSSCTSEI
In short: as §1

| IC50 [1] | IC50 [2] | Compound |
| --- | --- | --- |
| < 1 nM | < 30 nM | O=C(N[C@@H]1CCCC(F)(F)C1)c1ccc2c(c1)-c1cncn1CCO2 [Compound 116A, (R)—N-(3,3-Difluorocyclohexyl)-5,6-dihydrobenzo[f]imidazo[1,5-d][1,4]oxazepine-10-carboxamide] |
| 1 to 10 nM | 30 to 100 nM | O=C(N[C@H]1CCCC(F)(F)C1)c1ccc2c(c1)-c1cncn1CCO2 [Compound 117A, (S)—N-(3,3-Difluorocyclohexyl)-5,6-dihydrobenzo[f]imidazo[1,5-d][1,4]oxazepine-10-carboxamide] |
| > 100 nM | > 1000 nM | O=C(N[C@H]1CC[C@@H](OCC2(C(F)(F)F)CC2)CC1)c1ccc2c(c1)-c1cncn1CCO2 [Compound 118A, N-((1s,4s)-4-((1-(Trifluoromethyl)cyclopropyl)methoxy)cyclohexyl)-5,6-dihydrobenzo[f]imidazo[1,5-d][1,4]oxazepine-10-carboxamide] |
| 1 to 10 nM | < 30 nM | O=C(NC1CCC(CC(F)(F)F)CC1)c1ccc2c(c1)-c1cncn1CCO2 (centres unmarked) [Compound 119A, N-(4-(2,2,2-Trifluoroethyl)cyclohexyl)-5,6-dihydrobenzo[f]imidazo[1,5-d][1,4]oxazepine-10-carboxamide] |
| 1 to 10 nM | < 30 nM | CC(C)(CO[C@H]1CC[C@H](NC(=O)c2ccc3c(c2)-c2cncn2CCO3)CC1)C(F)(F)F [Compound 120A, N-((1r,4r)-4-(3,3,3-Trifluoro-2,2-dimethylpropoxy)cyclohexyl)-5,6-dihydrobenzo[f]imidazo[1,5-d][1,4]oxazepine-10-carboxamide] |
| > 100 nM | > 1000 nM | CC(C)(CO[C@H]1CC[C@@H](NC(=O)c2ccc3c(c2)-c2cncn2CCO3)CC1)C(F)(F)F [Compound 121A, N-((1s,4s)-4-(3,3,3-Trifluoro-2,2-dimethylpropoxy)cyclohexyl)-5,6-dihydrobenzo[f]imidazo[1,5-d][1,4]oxazepine-10-carboxamide] |
| 1 to 10 nM | < 30 nM | O=C(N[C@H]1CC[C@H](OCC(F)(F)F)CC1)c1ccc2c(c1)-c1cncn1CCO2 [Compound 122A, N-((1r,4r)-4-(2,2,2-Trifluoroethoxy)cyclohexyl)-5,6-dihydrobenzo[f]imidazo[1,5-d][1,4]oxazepine-10-carboxamide] |
| 10 to 100 nM | 100 to 1000 nM | O=C(N[C@H]1CC[C@@H](OCC(F)(F)F)CC1)c1ccc2c(c1)-c1cncn1CCO2 [Compound 123A, N-((1s,4s)-4-(2,2,2-Trifluoroethoxy)cyclohexyl)-5,6-dihydrobenzo[f]imidazo[1,5-d][1,4]oxazepine-10-carboxamide] |
| 10 to 100 nM | < 30 nM | O=C(Nc1cnc(N2CC(C(F)F)C2)nc1)c1ccc2c(c1)-c1cncn1CCO2 [Compound 124A, N-(2-(3-(Difluoromethyl)azetidin-1-yl)pyrimidin-5-yl)-5,6-dihydrobenzo[f]imidazo[1,5-d][1,4]oxazepine-10-carboxamide] |
| 1 to 10 nM | < 30 nM | CCC1CCC(NC(=O)c2ccc3c(c2)-c2cncn2CCO3)CC1 (centres unmarked) [Compound 125A, N-(4-Ethylcyclohexyl)-5,6-dihydrobenzo[f]imidazo[1,5-d][1,4]oxazepine-10-carboxamide] |
| 1 to 10 nM | 30 to 100 nM | CC(O)C1CCC(NC(=O)c2ccc3c(c2)-c2cncn2CCO3)CC1 (centres unmarked) [Compound 126A, N-(4-(1-Hydroxyethyl)cyclohexyl)-5,6-dihydrobenzo[f]imidazo[1,5-d][1,4]oxazepine-10-carboxamide] |
| 1 to 10 nM | < 30 nM | COC(C)(C)CO[C@H]1CC[C@H](NC(=O)c2ccc3c(c2)-c2cncn2CCO3)CC1 [Compound 127A, N-((1r,4r)-4-(2-Methoxy-2-methylpropoxy)cyclohexyl)-5,6-dihydrobenzo[f]imidazo[1,5-d][1,4]oxazepine-10-carboxamide] |
| 10 to 100 nM | 100 to 1000 nM | COC(C)(C)CO[C@H]1CC[C@@H](NC(=O)c2ccc3c(c2)-c2cncn2CCO3)CC1 [Compound 128A, N-((1s,4s)-4-(2-Methoxy-2-methylpropoxy)cyclohexyl)-5,6-dihydrobenzo[f]imidazo[1,5-d][1,4]oxazepine-10-carboxamide] |
| 1 to 10 nM | < 30 nM | O=C(Nc1cnc2c(c1)OCCO2)c1cc(Cl)c2c(c1)-c1cncn1CCO2 [Compound 129A, 8-Chloro-N-(2,3-dihydro-[1,4]dioxino[2,3-b]pyridin-7-yl)-5,6-dihydrobenzo[f]imidazo[1,5-d][1,4]oxazepine-10-carboxamide] |
| 1 to 10 nM | 30 to 100 nM | O=C(N[C@@H]1CCCOC1)c1cc(F)c2c(c1)-c1cncn1CCO2 [Compound 130A, (R)-8-Fluoro-N-(tetrahydro-2H-pyran-3-yl)-5,6-dihydrobenzo[f]imidazo[1,5-d][1,4]oxazepine-10-carboxamide] |
| < 1 nM | < 30 nM | CCC(O)(CN[C@H]1CC[C@H](NC(=O)c2ccc3c(c2)-c2cncn2CCO3)CC1)C(F)(F)F (some centres unmarked) [Compound 131A, N-((1r,4r)-4-((2-Hydroxy-2-(trifluoromethyl)butyl)amino)cyclohexyl)-5,6-dihydrobenzo[f]imidazo[1,5-d][1,4]oxazepine-10-carboxamide] |
| 1 to 10 nM | < 30 nM | O=C(N[C@@H]1CCS(=O)(=O)C1)c1cc(F)c2c(c1)-c1cncn1CCO2 [Compound 132A, (R)—N-(1,1-Dioxidotetrahydrothiophen-3-yl)-8-fluoro-5,6-dihydrobenzo[f]imidazo[1,5-d][1,4]oxazepine-10-carboxamide] |
| 1 to 10 nM | 30 to 100 nM | CC(C1CCC(NC(=O)c2ccc3c(c2)-c2cncn2CCO3)CC1)C(F)(F)F (centres unmarked) [Compound 133A, N-(4-(1,1,1-Trifluoropropan-2-yl)cyclohexyl)-5,6-dihydrobenzo[f]imidazo[1,5-d][1,4]oxazepine-10-carboxamide] |
| < 1 nM | < 30 nM | O=C(NC1CC(F)(F)C1)c1cc(Cl)c2c(c1)-c1cncn1CCO2 [Compound 134A, 8-Chloro-N-(3,3-difluorocyclobutyl)-5,6-dihydrobenzo[f]imidazo[1,5-d][1,4]oxazepine-10-carboxamide] |
| < 1 nM | < 30 nM | O=C(NC1CC(F)(F)C1)c1cc(F)c2c(c1)-c1cncn1CCO2 [Compound 135A, N-(3,3-Difluorocyclobutyl)-8-fluoro-5,6-dihydrobenzo[f]imidazo[1,5-d][1,4]oxazepine-10-carboxamide] |
| 1 to 10 nM | 30 to 100 nM | CC1(F)CC(NC(=O)c2ccc3c(c2)-c2cncn2CCO3)C1 (centres unmarked) [Compound 136A, N-(3-Fluoro-3-methylcyclobutyl)-5,6-dihydrobenzo[f]imidazo[1,5-d][1,4]oxazepine-10-carboxamide] |
| < 1 nM | < 30 nM | O=C(NC1CCC(F)(F)CC1)c1cc(Cl)c2c(c1)-c1cncn1CCO2 [Compound 137A, 8-Chloro-N-(4,4-difluorocyclohexyl)-5,6-dihydrobenzo[f]imidazo[1,5-d][1,4]oxazepine-10-carboxamide] |
| 1 to 10 nM | < 30 nM | CC1(F)CC(NC(=O)c2cc(F)c3c(c2)-c2cncn2CCO3)C1 (centres unmarked) [Compound 138A, 8-Fluoro-N-(3-fluoro-3-methylcyclobutyl)-5,6-dihydrobenzo[f]imidazo[1,5-d][1,4]oxazepine-10-carboxamide] |
| < 1 nM | < 30 nM | O=C(NC1CCC1(F)F)c1ccc2c(c1)-c1cncn1CCO2 (centres unmarked) [Compound 139A, N-(2,2-Difluorocyclobutyl)-5,6-dihydrobenzo[f]imidazo[1,5-d][1,4]oxazepine-10-carboxamide] |
| < 1 nM | < 30 nM | O=C(NC1CCC1(F)F)c1cc(F)c2c(c1)-c1cncn1CCO2 (centres unmarked) [Compound 140A, N-(2,2-Difluorocyclobutyl)-8-fluoro-5,6-dihydrobenzo[f]imidazo[1,5-d][1,4]oxazepine-10-carboxamide] |
| 1 to 10 nM | < 30 nM | CC1(C)CC(NC(=O)c2ccc3c(c2)-c2cncn2CCO3)C1 [Compound 141A, N-(3,3-Dimethylcyclobutyl)-5,6-dihydrobenzo[f]imidazo[1,5-d][1,4]oxazepine-10-carboxamide] |
| < 1 nM | < 30 nM | CC1(C)CC(NC(=O)c2cc(F)c3c(c2)-c2cncn2CCO3)C1 [Compound 143A, N-(3,3-Dimethylcyclobutyl)-8-fluoro-5,6-dihydrobenzo[f]imidazo[1,5-d][1,4]oxazepine-10-carboxamide] |
| 1 to 10 nM | < 30 nM | COCC1COc2cc(NC(=O)c3ccc4c(c3)-c3cncn3CCO4)cnc2O1 (centres unmarked) [Compound 144A, N-(3-(Methoxymethyl)-2,3-dihydro-[1,4]dioxino[2,3-b]pyridin-7-yl)-5,6-dihydrobenzo[f]imidazo[1,5-d][1,4]oxazepine-10-carboxamide] |
